In patent publication US20090215628A1, “Benzoyl-Substituted Alanines” (BASF SE, priority 2006, published 2009):

What was measured:
Test in all cases: greenhouse post-emergence herbicidal test
Type in all cases: in vivo
Setaria viridis = conditions: application rate 1 kg/ha
Description: (§1) The seeds of the test plants were sown separately for each species. For the post-emergence treatment, the test plants were first grown to a height of 3 to 15 cm, depending on the plant habit, and only then treated with the active compounds which had been suspended or emulsified in water. For this purpose, the test plants were either sown directly and grown in the same containers, or they were first grown separately as seedlings and transplanted into the test containers a few days prior to treatment. The rate of application for the post-emergence treatment was 1.0 kg/ha of a.s. (active substance). Depending on the species, the plants were kept at 10-25° C. or 20-35° C. The test period extended over 2 to 4 weeks. During this time, the plants were tended, and their response to the individual treatments was evaluated. Evaluation was carried out using a scale from 0 to 100. 100 means no emergence of the plants, or complete destruction of at least the aerial parts, and 0 means no damage, or normal course of growth. The plants used in the greenhouse experiments belonged to the following species: [table]

Amaranthus retroflexus = tested on: Amaranthus retroflexus
Description: as §1, with “The rate of application for the post-emergence treatment was 1.0 kg/ha of a.s.” left out

Chenopodium album = tested on: Chenopodium album
Description: as §1, with “The rate of application for the post-emergence treatment was 1.0 kg/ha of a.s.” left out

Galium aparine = conditions: application rate 0.5 kg/ha
Description: as §1, with “The rate of application for the post-emergence treatment was 1.0 kg/ha of a.s.” left out

Row | SMILES | post-emergence activity against Setaria viridis (Setaria viridis) | post-emergence activity against Amaranthus retroflexus (Amaranthus retroflexus; application rate 1 kg/ha) | post-emergence activity against Chenopodium album (Chenopodium album; application rate 1 kg/ha) | post-emergence activity against Galium aparine (Galium aparine) | post-emergence activity against Amaranthus retroflexus (Amaranthus retroflexus; application rate 0.5 kg/ha) | post-emergence activity against Chenopodium album (Chenopodium album; application rate 0.5 kg/ha)
1 | CNC(=O)C(NC(=O)c1ccc(F)cc1C(F)(F)F)C(CNC(=O)C(F)(F)F)c1ccccc1 (racemic) [Compound 4.21] | very good | very good | very good | – | – | –
2 | CNC(=O)C(NC(=O)c1ccc(F)cc1C(F)(F)F)C(c1ccccc1)C(C)[N+](=O)[O-] (mixture of isomers) [Compound 5.2] | – | – | – | very good | very good | very good
3 | CNC(=O)C(NC(=O)c1ccc(F)cc1C(F)(F)F)C(CNS(C)(=O)=O)c1ccccc1 (mixture of isomers) [Compound 4.4] | very good | very good | very good | – | – | –
4 | CNC(=O)C(NC(=O)c1ccc(F)cc1C(F)(F)F)C(C[N+](=O)[O-])c1cccc(F)c1C (mixture of isomers) [Compound 5.4] | – | very good | very good | – | – | –
5 | CNC(=O)[C@@H](NC(=O)c1ccc(F)cc1C(F)(F)F)[C@H](CNC(C)=O)c1ccccc1 (racemic) [Compound 4.16, N-((1RS,2RS)-3-Acetylamino-1-methylcarbamoyl-2-phenylpropyl)-4-fluoro-2-trifluoromethylbenzamide] | very good | very good | very good | – | – | –
6 | CNC(=O)C(NC(=O)c1ccc(F)cc1C(F)(F)F)C(C[N+](=O)[O-])c1ccccc1 (racemic) [Compound 5.1, 4-Fluoro-N-(1-methylcarbamoyl-3-nitro-2-phenylpropyl)-2-trifluoromethylbenzamide] | – | – | – | good | very good | good
7 | CNC(=O)C(NC(=O)c1ccc(F)cc1C(F)(F)F)C(CNC(=O)N(C)C)c1ccccc1 (racemic) [Compound 4.12] | very good | very good | very good | – | – | –
8 | CNC(=O)C(NC(=O)c1ccc(F)cc1C(F)(F)F)C(CNC(C)=O)c1cccc(F)c1C (mixture of isomers) [Compound 4.36] | very good | very good | very good | – | – | –
9 | CNC(=O)C(NC(=O)c1ccc(F)cc1C(F)(F)F)C(CNC(=O)N(C)C)c1ccccc1C (mixture of isomers) [Compound 4.33] | very good | very good | very good | – | – | –
10 | CNC(=O)C(NC(=O)c1ccc(F)cc1C(F)(F)F)C(C[N+](=O)[O-])c1cccc(F)c1 (mixture of isomers) [Compound 5.3] | – | very good | good | – | – | –
11 | CNC(=O)C(NC(=O)c1ccc(F)cc1C(F)(F)F)C(CNC(C)=O)c1ccccc1C (mixture of isomers) [Compound 4.34] | very good | very good | very good | – | – | –
12 | CNC(=O)C(NC(=O)c1ccc(F)cc1C(F)(F)F)C(c1ccccc1C)C(C)O (racemic) [Compound 3.12] | – | – | – | very good | very good | very good
13 | CNC(=O)C(NC(=O)c1ccc(F)cc1C(F)(F)F)C(CNC(=O)C(Cl)(Cl)Cl)c1ccccc1 (racemic) [Compound 4.22] | very good | very good | very good | – | – | –
